The source of these data is patent US20260053171A1, “METHANOGEN INHIBITORS” (AGRIZERONZ LIMITED PARTNERSHIP, priority 2022, published 2026).

This test deals with methane production in rumen fluid. Description: Rumen in vitro (RIV) assay, methane production from rumen fluid incubations. Type of test: cell-based, cattle. The following applies: for inhibition (methane, RIV positive control): 30 μM; for inhibition at 50 µM / inhibition at 10 µM / inhibition at 2 µM: Bos taurus, read-out: RIV % methane reduction +/− SD. The protocol:
The compounds of the present invention were initially screened for activity using an in vitro fully automated incubation system for the measurement of total gas production and gas composition (methane and hydrogen). The system used is described in detail in the paper by Muetzel et al. (2014; Animal Feed Science and Technology 196, 1-11). The system in this specification is referred to as the rumen in vitro system or RIV. The RIV system provides a relatively simple tool for determining the rate and production of methane and also whether the rate and production of methane is inhibited or reduced by a particular compound or feed. Rumen in vitro assays use rumen fluid from donor animals (typically either sheep or cattle) which is typically combined with a buffer and then incubated in sealed fermentation vessels at 39° C. for either 24 or 48 h. These assays systems have been well-characterised and used by the scientific community over the last two decades (Rymer et al. 2005). The system that has been used here to characterise the effects of inhibitors on methane production and gas production, and the formation of H2, was described by Muetzel et al. (2014). Rumen in vitro assay systems reflect what can occur in the rumen in vivo, but only short-term, due to their short incubation times (typically not exceeding 48 h) which is limited by its buffering capacity and the fact that it is a closed system. Stock solutions of inhibitors were re-suspended in dimethylformamide (DMF) at concentrations 1000-fold higher than the highest used for the assays. Any further dilutions were also prepared using DMF. The total amount of inhibitor solution added to the rumen fluid-buffer mixture (60 mL) was 60 μl. Incubations used 60 ml of medium containing 12 ml of filtered rumen fluid and 48 ml of buffer in serum bottles for 24-48 h, essentially as described by Muetzel et al. (2014). Two fistulated cattle were used as donor animals for rumen fluid and treatments were incubated in duplicate bottles. Sets of duplicate incubation vials that contained ryegrass (with rumen fluid-buffer mixture), and ryegrass with 30 μM bromoethanesulfonate (BES) were also incubated as negative and positive controls, respectively. One experiment consists of 2 replicates of an inhibitor at any one concentration run at the same time, and a run can contain up to 32 bottle, including positive (30 µM BES) and negative (no inhibitor added) controls. Compound 1, for example, was tested using the 60 mL rumen in vitro assay system at 50 μM, 10 μM, and 2 μM final concentrations and compared to a positive control with 30 µM BES.

In the case of `O=S(=O)(O)CCBr` [BES, bromoethanesulfonate, reference compound], the “inhibition (methane, RIV positive control)” value by setting is: (at 10 hours) 70.5%; (at 18 hours) 55.6%.
In the case of `O=C(O)CCC(=O)N1N=C(c2ccc(Cl)cc2)CC1c1ccc2nccnc2c1` (centres unmarked) [Compound 1, 4-(3-(4-Chlorophenyl)-5-(quinoxalin-6-yl)-4,5-dihydro-1H-pyrazol-1-yl)-4-oxobutanoic acid], the inhibition at 50 µM was found to be 37.6 ± 1.3%.
Turning to `O=C(O)CCC(=O)N1N=C(c2ccccc2)CC1c1ccc2nccnc2c1` (centres unmarked) [Compound 1A, 4-Oxo-4-(3-phenyl-5-(quinoxalin-6-yl)-4,5-dihydro-1H-pyrazol-1-yl)butanoic acid], the inhibition at 50 µM is less than 5%.
Same read-out and setting: with `Cc1ccc(C2=NN(C(=O)CCC(=O)O)C(c3ccc4nccnc4c3)C2)cc1` (centres unmarked) [Compound 2] the figure was 13.9%.
Turning to `CC(C)c1ccc(C2=NN(C(=O)CCC(=O)O)C(c3ccc4nccnc4c3)C2)cc1` (centres unmarked) [Compound 3, 4-(3-(4-Isopropylphenyl)-5-(quinoxalin-6-yl)-4,5-dihydro-1H-pyrazol-1-yl)-4-oxobutanoic acid], the inhibition at 10 µM turned out to be 5.5 ± 2.8% and the inhibition at 50 µM was determined as 78.6 ± 1.1%.
For `O=C(O)CCC(=O)N1N=C(c2ccc(C3CCCCC3)cc2)CC1c1ccc2nccnc2c1` (centres unmarked) [Compound 4, 4-(3-(4-Cyclohexylphenyl)-5-(quinoxalin-6-yl)-4,5-dihydro-1H-pyrazol-1-yl)-4-oxobutanoic acid] the same measures were less than 5% and 79.5 ± 4.4%.
As for `O=C(O)CCC(=O)N1N=C(c2ccc(C(F)(F)F)cc2)CC1c1ccc2nccnc2c1` (centres unmarked) [Compound 5, 4-Oxo-4-(5-(quinoxalin-6-yl)-3-(4-(trifluoromethyl)phenyl)-4,5-dihydro-1H-pyrazol-1-yl)butanoic acid], the inhibition at 50 µM came out at 46.5 ± 2.7%.
Turning to `COc1ccc(C2=NN(C(=O)CCC(=O)O)C(c3ccc4nccnc4c3)C2)cc1` (centres unmarked) [Compound 6, 4-(3-(4-Methoxyphenyl)-5-(quinoxalin-6-yl)-4,5-dihydro-1H-pyrazol-1-yl)-4-oxobutanoic acid], the inhibition at 50 µM was determined as 5.6 ± 2%.
Regarding `O=C(O)CCC(=O)N1N=C(c2ccc(Oc3ccccc3)cc2)CC1c1ccc2nccnc2c1` (centres unmarked) [Compound 7, 4-Oxo-4-(3-(4-phenoxyphenyl)-5-(quinoxalin-6-yl)-4,5-dihydro-1H-pyrazol-1-yl)butanoic acid], the inhibition at 10 µM worked out at 30.7 ± 3.6% and the inhibition at 50 µM came out at 66.4 ± 14.7%.
For `O=C(O)CCC(=O)N1N=C(c2ccc(OC(F)(F)F)cc2)CC1c1ccc2nccnc2c1` (centres unmarked) [Compound 8, 4-Oxo-4-(5-(quinoxalin-6-yl)-3-(4-(trifluoromethoxy)phenyl)-4,5-dihydro-1H-pyrazol-1-yl)butanoic acid] the same measures were 22.6 ± 2.8% and 75.2 ± 1.6%.
As for `O=C(O)CCC(=O)N1N=C(c2ccc(Br)cc2)CC1c1ccc2nccnc2c1` (centres unmarked) [Compound 9, 4-(3-(4-Bromophenyl)-5-(quinoxalin-6-yl)-4,5-dihydro-1H-pyrazol-1-yl)-4-oxobutanoic acid], the inhibition at 50 µM came out at 64.9 ± 1.9%.
On to `O=C(O)CCC(=O)N1N=C(c2ccc(Cl)cc2Cl)CC1c1ccc2nccnc2c1` (centres unmarked) [Compound 10, 4-(3-(2,4-Dichlorophenyl)-5-(quinoxalin-6-yl)-4,5-dihydro-1H-pyrazol-1-yl)-4-oxobutanoic acid], for which the inhibition at 50 µM was found to be 64 ± 0.6%.
The same measure, in the same setting: the result for `O=C(O)CCC(=O)N1N=C(c2ccc(Cl)c(Cl)c2)CC1c1ccc2nccnc2c1` (centres unmarked) [Compound 11, 4-(3-(3,4-Dichlorophenyl)-5-(quinoxalin-6-yl)-4,5-dihydro-1H-pyrazol-1-yl)-4-oxobutanoic acid] reads 62.8 ± 3.4%.
On to `O=C(O)CCC(=O)N1N=C(c2ccccc2-c2ccccc2)CC1c1ccc2nccnc2c1` (centres unmarked) [Compound 12, 4-(3-([1,1′-Biphenyl]-2-yl)-5-(quinoxalin-6-yl)-4,5-dihydro-1H-pyrazol-1-yl)-4-oxobutanoic acid], for which the inhibition at 10 µM stood at 51.6 ± 1.5% and the inhibition at 50 µM is 95.9 ± 0.9%.
Consider `O=C(O)CCC(=O)N1N=C(c2cccc(-c3ccccc3)c2)CC1c1ccc2nccnc2c1` (centres unmarked) [Compound 13, 4-(3-([1,1′-Biphenyl]-3-yl)-5-(quinoxalin-6-yl)-4,5-dihydro-1H-pyrazol-1-yl)-4-oxobutanoic acid], for which the inhibition at 2 µM was 5 ± 0.4%, the inhibition at 10 µM came to 74.4 ± 3.3% and the inhibition at 50 µM stood at 97.2 ± 0.1%.
On to `O=C(O)CCC(=O)N1N=C(c2cccc(-c3ccc(OC(F)(F)F)cc3)c2)CC1c1ccc2nccnc2c1` (centres unmarked) [Compound 14, 4-Oxo-4-(5-(quinoxalin-6-yl)-3-(4′-(trifluoromethoxy)-[1,1′-biphenyl]-3-yl)-4,5-dihydro-1H-pyrazol-1-yl)butanoic acid], for which the inhibition at 2 µM was less than 5%, the inhibition at 10 µM was 72.4 ± 0.8% and the inhibition at 50 µM is 95.4%.
For `O=C(O)CCC(=O)N1N=C(c2ccc(-c3ccccc3)cc2)CC1c1ccc2nccnc2c1` (centres unmarked) [Compound 15, 4-(3-([1,1′-Biphenyl]-4-yl)-5-(quinoxalin-6-yl)-4,5-dihydro-1H-pyrazol-1-yl)-4-oxobutanoic acid] the same measures were less than 5%, 60.1 ± 1% and 87.8 ± 1.6%.
Consider `O=C(O)CCC(=O)N1N=C(c2ccc(-c3ccc(F)cc3)cc2)CC1c1ccc2nccnc2c1` (centres unmarked) [Compound 16, 4-(3-(4′-Fluoro-[1,1′-biphenyl]-4-yl)-5-(quinoxalin-6-yl)-4,5-dihydro-1H-pyrazol-1-yl)-4-oxobutanoic acid], for which the inhibition at 2 µM was less than 5%, the inhibition at 10 µM came out at 77.5 ± 2.1% and the inhibition at 50 µM stood at 96.6 ± 0.2%.
In the same order, the values of `O=C(O)CCC(=O)N1N=C(c2ccc(-c3ccccc3Cl)cc2)CC1c1ccc2nccnc2c1` (centres unmarked) [Compound 17, 4-(3-(2′-Chloro-[1,1′-biphenyl]-4-yl)-5-(quinoxalin-6-yl)-4,5-dihydro-1H-pyrazol-1-yl)-4-oxobutanoic acid] are less than 5%, 74.2 ± 7.8% and 90 ± 1.2%.
For `O=C(O)CCC(=O)N1N=C(c2ccc(-c3cccc(Cl)c3)cc2)CC1c1ccc2nccnc2c1` (centres unmarked) [Compound 18, 4-(3-(3′-Chloro-[1,1′-biphenyl]-4-yl)-5-(quinoxalin-6-yl)-4,5-dihydro-1H-pyrazol-1-yl)-4-oxobutanoic acid] the same measures were less than 5%, 83.6 ± 1.5% and 94.1 ± 0.1%.
As for `O=C(O)CCC(=O)N1N=C(c2ccc(-c3ccc(C(F)(F)F)cc3)cc2)CC1c1ccc2nccnc2c1` (centres unmarked) [Compound 20, 4-Oxo-4-(5-(quinoxalin-6-yl)-3-(4′-(trifluoromethyl)-[1,1′-biphenyl]-4-yl)-4,5-dihydro-1H-pyrazol-1-yl)butanoic acid], the inhibition at 10 µM stood at 37.2 ± 5.9%.
For the molecule `O=C(O)CCC(=O)N1N=C(c2ccc(-c3cccc(OC(F)(F)F)c3)cc2)CC1c1ccc2nccnc2c1` (centres unmarked) [Compound 21, 4-Oxo-4-(5-(quinoxalin-6-yl)-3-(3′-(trifluoromethoxy)-[1,1′-biphenyl]-4-yl)-4,5-dihydro-1H-pyrazol-1-yl)butanoic acid], the inhibition at 2 µM was 15.8 ± 1.1%, the inhibition at 10 µM was 91.9 ± 1.5% and the inhibition at 50 µM was 97.9%.
Turning to `O=C(O)CCC(=O)N1N=C(c2ccc(-c3ccc(OC(F)(F)F)cc3)cc2)CC1c1ccc2nccnc2c1` (centres unmarked) [Compound 22, 4-Oxo-4-(5-(quinoxalin-6-yl)-3-(4′-(trifluoromethoxy)-[1,1′-biphenyl]-4-yl)-4,5-dihydro-1H-pyrazol-1-yl)butanoic acid], the inhibition at 2 µM came out at 23.8 ± 1.1%, the inhibition at 10 µM was determined as 85.1 ± 0.8% and the inhibition at 50 µM is 94.7 ± 0.8%.
Regarding `Cc1ccc(-c2ccc(C3=NN(C(=O)CCC(=O)O)C(c4ccc5nccnc5c4)C3)cc2)cc1` (centres unmarked) [Compound 23, 4-(3-(4′-Methyl-[1,1′-biphenyl]-4-yl)-5-(quinoxalin-6-yl)-4,5-dihydro-1H-pyrazol-1-yl)-4-oxobutanoic acid], the inhibition at 10 µM turned out to be 69 ± 3.7% and the inhibition at 50 µM is 94.8 ± 0.4%.
Take `CC(C)c1ccc(-c2ccc(C3=NN(C(=O)CCC(=O)O)C(c4ccc5nccnc5c4)C3)cc2)cc1` (centres unmarked) [Compound 24, 4-(3-(4′-Isopropyl-[1,1′-biphenyl]-4-yl)-5-(quinoxalin-6-yl)-4,5-dihydro-1H-pyrazol-1-yl)-4-oxobutanoic acid]: the inhibition at 2 µM was 21.8%, the inhibition at 10 µM came to 94.1 ± 0.3% and the inhibition at 50 µM amounted to 97.8 ± 0.05%.
